Laboratory results from patent US20110183978A1, “Phenylpyri(mi)dinylazoles” (Bayer CropScience AG, priority 2009, published 2011).
Where two headings read alike, the source gives them in different places.

Key:
Fusarium proliferatum = assay: Example I: production of fumonisin FB1 by Fusarium proliferatum (microtitre plates); format: cell-based; details: 120 h
Fusarium graminearum = assay: microbe, parasite or virus in culture; format: cell-based
Sphaerotheca fuliginea = assay: Example L: in vivo test on Sphaerotheca fuliginea (powdery mildew on cucumber/protective); details: Podosphaera fuliginea, 168 h, cucumber, protective, assessment 7 days after inoculation, read-out: % Wirkungsgrad
Description: Solvent: 49 parts by weight N,N-dimethylformamide Emulsifier: 1 part by weight alkylaryl polyglycol ethers For the preparation of a suitable active substance preparation, 1 part by weight of active substance is mixed with the stated quantities of solvent and emulsifier and the concentrate is diluted to the desired concentration with water. For the testing for protective activity, young cucumber plants are sprayed with the active substance preparation at the stated application dosage. One day after the treatment, the plants are inoculated with a spore suspension of Sphaerotheca fuliginea. Next, the plants are placed in a greenhouse at 70% relative atmospheric humidity and a temperature of 23° C. 7 days after the inoculation, the assessment takes place.

Alternaria solani = assay: Example M: in vivo test on Alternaria solani (leaf blotch disease/tomato/protective); details: 168 h, tomato, protective, 500 ppm active substance, assessed 7 days after inoculation, read-out: % Wirkungsgrad (activity level)
How it was run: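 Alternaria solani infection on tomato scored 7 days post-inoculation. Before inoculation, young plants received a protective spray at the stated application dose; formulation was compound mixed with N,N-dimethylformamide and emulsifier, water-diluted.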

Venturia inaequalis = assay: Example O: in vivo test on Venturia inaequalis (apple scab/protective); details: 240 h, protective, assessment 10 days after inoculation, read-out: % Wirkungsgrad
Description: (§1) Emulsifier: 1 part by weight alkylaryl polyglycol ethers For the preparation of a suitable active substance preparation, 1 part by weight of active substance is mixed with the stated quantities of solvent and emulsifier and the concentrate is diluted to the desired concentration with water. For the testing for protective activity, young plants are sprayed with the active substance preparation at the stated application dosage. […] 10 days after the inoculation, the assessment takes place.

Botrytis cinerea = assay: Example P: in vivo test on Botrytis cinerea (gray mould on bean/protective); details: 48 h, bean, protective, 250 ppm active substance, assessed 2 days after inoculation, read-out: % Wirkungsgrad (activity level)
Description: as §1, with “dosage. After drying of the spray coating, 2 small pieces of agar with Botrytis cinerea growing on them are laid on every leaf.” for “dosage.”, “2” for “10”, “size of the infection blotches on the leaves is assessed.” for “assessment takes place.”

[1] = Fusarium proliferatum growth, OD 620, 5 days, read-out: % Inhibition des Pilzwachstums bei 50 μM
[2] = Fusarium proliferatum, 5 days at 20° C., HPLC-MS/MS, read-out: % Inhibition der FB1 produktion bei 50 μM
[3] = 72 h, read-out: % Inhibition des Pilzwachstums bei 50 μM
[4] = 168 h, read-out: % Inhibition der DON/AcDON produktion bei 50 μM
[5] = LogPA (logP of the stated pure compound or, in a mixture, of the main isomer, 1-substituted 3-aryl-1H-pyrazole)

SMILES	inhibition at 50 µM (Fusarium proliferatum; [1])	inhibition at 50 µM (Fusarium proliferatum; [2])	inhibition at 50 µM (Fusarium graminearum; [3])	inhibition at 50 µM (Fusarium graminearum; [4])	pest or weed control at 500 ppm (Sphaerotheca fuliginea)	pest or weed control at 500 ppm (Alternaria solani)	chromatographic logP (physchem; [5])	chromatographic logP (physchem; LogPA)	pest or weed control at 100 ppm (Venturia inaequalis)	pest or weed control at 250 ppm (Botrytis cinerea)
CC(C)Cn1cc(-c2ccncn2)c(-c2cccc(Cl)c2)n1 [Compound 5]	79%	100%	97%	100%	70%	90%	3.27			
Fc1ccc(-c2nn(C3CCCCO3)cc2-c2ccnc3[nH]ccc23)cc1 (stereo not drawn) [Compound 20]	65%	100%	21%	87%			2.08			
Cc1nccc(-c2cn(C3CCCCO3)nc2-c2ccc(F)cc2)n1 (stereo not drawn) [Compound 29]	34%	82%			70%	78%	2.53			
FC(F)(F)c1cccc(-c2nn(C3CCCCO3)cc2-c2ccnc3[nH]ccc23)c1 (stereo not drawn) [Compound 50]	8%	89%					2.93			
Fc1ccc(-c2nn(C3CCCCO3)cc2-c2ccnc3ccccc23)cc1 (stereo not drawn) [Compound 54]	47%	100%	31%	85%			2.46			
CC(C)(C)n1cc(-c2ccncc2)c(-c2ccc(F)cc2)n1 [Compound 58]	42%	89%					2.62			
c1ccc(Oc2ccc(-c3c(-c4ccncc4)cnn3C3CCCCO3)cc2)cc1 (stereo not drawn) [Compound 59, 4-[5-(4-phenoxyphenyl)-1-(tetrahydro-2H-pyran-2-yl)-1H-pyrazol-4-yl]pyridine]	0%	95%					1.88			
N#Cc1cccc(-c2c(-c3ccncc3)cnn2C2CCCCO2)c1 (stereo not drawn) [Compound 60, 3-[4-(pyridin-4-yl)-1-(tetrahydro-2H-pyran-2-yl)-1H-pyrazol-5-yl]benzonitrile]	92%	100%					1.23			
Fc1ccc(-c2nn(C3CCCCO3)cc2-c2ncnc3[nH]ccc23)cc1 (stereo not drawn) [Compound 66]	40%	85%					1.69			
Clc1ccc(-c2c(-c3ccncc3)cnn2C2CCCCO2)cc1 (stereo not drawn) [Compound 70, 4-[5-(4-chlorophenyl)-1-(tetrahydro-2H-pyran-2-yl)-1H-pyrazol-4-yl]pyridine]	0%	92%					1.52			
CCC(=O)Nc1cc(-c2cn(CCOC)nc2-c2ccc(F)cc2)ccn1 [Compound 153, N-{4-[3-(4-fluorophenyl)-1-(2-methoxyethyl)-1H-pyrazol-4-yl]pyridin-2-yl}propanamide]	48%	100%	56%	100%		90%	1.61			
COCCn1cc(-c2ccnc(NC(=O)COC)c2)c(-c2ccc(F)cc2)n1 [Compound 163]	72%	100%	100%	100%	93%	93%	2.05			
CC(C)Cn1cc(-c2ccnc(NC(=O)C3CC3)c2)c(-c2ccc(F)cc2)n1 [Compound 165]	90%	100%	64%	100%	86%	95%	2.6			
COCC(=O)Nc1cc(-c2cn(CC(C)C)nc2-c2ccc(F)cc2)ccn1 [Compound 166]	98%	100%	84%	100%	97%	95%		2.96		
CCOCCn1cc(-c2ccncc2)c(-c2ccc(F)cc2)n1 [Compound 179]					74%	100%		1.25	100%	100%
N#CCn1cc(-c2ccncc2)c(-c2ccc(F)cc2)n1 [Compound 180]								0.89	96%	93%
CC(C)Cn1cc(-c2ccnc(NC(=O)Cc3ccccc3)c2)c(-c2ccc(F)cc2)n1 [Compound 191]	1%	96%						3.54		
CCC(=O)Nc1cc(-c2cn(C3CCN(C(=O)OC(C)(C)C)CC3)nc2-c2ccc(F)cc2)ccn1 [Compound 193]	0%	85%				93%		3.03		
CCC(=O)Nc1cc(-c2c(-c3ccc(Cl)cc3F)nn(C)c2SC)ccn1 [Compound 195]	17%	100%	0%	80%		80%		2.7		
CCC(=O)Nc1cc(-c2c(-c3ccc(F)cc3O)nn(C)c2OC(F)F)ccn1 [Compound 196]	25%	100%				100%		2.12		
COCC(=O)Nc1cc(-c2c(-c3ccc(Cl)cc3F)nn(C)c2SC)ccn1 [Compound 200]	1%	99%				93%		3		
CCC(=O)Nc1cc(-c2cn(Cc3ccccc3F)nc2-c2ccc(F)cc2)ccn1 [Compound 213]	56%	100%	0%	100%	74%	90%		2.69		91%
COCC(=O)Nc1cc(-c2cn(CC(F)F)nc2-c2ccc(F)cc2)ccn1 [Compound 216]	97%	100%			89%	95%		2.27		
COCC(=O)Nc1cc(-c2cn(CC3CC3)nc2-c2ccc(F)cc2)ccn1 [Compound 223]	96%	100%	99%	97%	91%	90%		2.61		
CC(C)C(=O)Nc1cc(-c2cn(CC3CC3(Cl)Cl)nc2-c2ccc(F)cc2)ccn1 (stereo not drawn) [Compound 254]			16%	99%	92%	94%		3.17	73%	
Cn1nc(-c2ccc(F)cc2O)c(-c2ccnc(NC(=O)C3CC3)c2)c1OC(F)F [Compound 258]			79%	98%	80%	95%		2.22		
CCOC(=O)Nc1cc(-c2cn(CC(C)C)nc2-c2ccc(F)cc2)ccn1 [Compound 267]			59%	97%	98%	95%		3.11		
CCOCCn1cc(-c2ccnc(NC(=O)CC)c2)c(-c2ccc(F)cc2)n1 [Compound 326]			107%	100%	94%	95%		2.01		
CCOCCn1cc(-c2ccnc(NC(=O)C(C)C)c2)c(-c2ccc(F)cc2)n1 [Compound 328]			101%	100%	100%	95%		2.32		
CCOCCn1cc(-c2ccnc(NC(=O)CC3CC3)c2)c(-c2ccc(F)cc2)n1 [Compound 329]			104%	100%	94%	95%		2.48		
